The test system of data set [1] is 5-hydroxytryptamine-induced constriction. The data set is described as follows: Inhibition of 5-hydroxytryptamine induced bronchoconstriction in the anaesthetised, artificially respired guinea pig (Konzett-Rossler preparation). The data set is classed as in vivo. As to conditions: Cavia porcellus, iv, read-out: ID50 against 5-hydroxytryptamine-induced constriction. The procedure: (§1) 1. The compounds were examined for their ability to inhibit 5-hydroxytryptamine or histamine induced bronchoconstriction in the anaesthetised, artificially respired guinea pig (Konzett-Rossler preparation). The compounds were administered intravenously.

Data set [2] concerns bronchoconstriction induced by an histamine aerosol. The data set is described as follows: Protection of conscious guinea pigs against bronchoconstriction induced by an histamine aerosol (Herxheimer test). In kind it is in vivo, guinea pig. On the set-up: key to Aerosol route Activity (class symbol) / Oral route Activity (class symbol): A: active. To be noted: mean of several experiments; for minimal effective dose: Cavia porcellus, read-out: Oral route Activity: dose at which active; for minimal effective dose / Oral route Activity (class symbol): oral route. As for the experimental part:
2. the compounds were also examined for their ability to protect conscious guinea pigs against bronchoconstriction induced by an histamine aerosol (Herxheimer test). In these experiments the compounds were administered by aerosol or by oral administration. The results are shown in Table B. The results are the mean of several experiments.

Data set [3] has as its system indomethacin induced gastric damage. The data set is described as follows: Anti-ulcer activity: inhibition of indomethacin induced gastric damage in the rat. In kind it is in vivo. To be noted: 100 mg/kg orally, 30 minutes prior to 15 mg/kg indomethacin s.c., groups of 7 rats, score scale 1-9. As for the experimental part: Anti-ulcer activity was assessed by the inhibition of indomethacin induced gastric damage in the rat according to the method of Eleghe (1974) Israeli J. Med. Sci. 10. 1451. Rats were starved overnight given 15 mg/kg indomethacin subcutaneously and sacrificed 4 hours later. Stomachs were reflated with n.saline, cut along the greater curvature pinned out and scored for gastric damage by the following system:
Score 1-3--according to degree of erythema and slight haemorrhage.
Score 4-6--according to degree of mucosal erosion.
Score 7-9--according to depth of gastric damage.
Groups of 7 rats were used for each treatment and the test compound or vehicle were administered 30 minutes prior to giving the indomethacin. Dose of test compound was 100 mg/kg orally and control groups receiving vehicle only were set up simultaneously. Mean values for each treatment were obtained using the above scoring system and the Mann Witney test applied for significance of difference between the values obtained with the treatments.

The subject of data set [4] is pentagastrin-stimulated gastric acid secretion. Briefly: Inhibition of pentagastrin-stimulated gastric acid secretion in the anaesthetised, perfused rat stomach preparation (Ghosh and Schild preparation). To be noted: i.v. In kind it is in vivo. As for the experimental part:
The compounds were examined for their ability to inhibit pentagastrin-stimulated gastric acid secretion in the anaesthetised, perfused rat stomach preparation (Ghosh and Schild preparation). The compounds were administered intra-venously.

Data set [5] has as its system platelet aggregation induced by collagen in human platelet rich plasma. Briefly: Inhibition of collagen-induced platelet aggregation in vitro in human platelet rich plasma. The data set is classed as cell-based. To be noted: for inhibition at 100 µM: collagen-induced. The text has this: The compounds were examined for their ability to inhibit platelet aggregation induced in vitro by collagen in human platelet rich plasma.

The subject of data set [6] is heart fibrillation induced by chloroform. Briefly: Anti-arrythmic activity: prevention of heart fibrillation in mice exposed to chloroform. To be noted: 100 mg/kg intraperitoneally, group of 3 mice. The data set is classed as in vivo. The source says: The compounds were examined for anti-arrythmic activity by determining their ability to prevent heart fibrillation in mice exposed to chloroform.

A short description of data set [7]: in vivo. More on the design: species or system mice. To be noted: mouse. As for the experimental part: For example, Compound 17 was not toxic in mice at doses up to 300 mg/kg, orally, or at doses up to 100 mg/kg, intraperitoneally, whereas Compound 21 was not toxic at doses up to 900 mg/kg, orally, in mice.
Data set [8] has as its system histamine-induced bronchoconstriction. Briefly: Inhibition of histamine induced bronchoconstriction in the anaesthetised, artificially respired guinea pig (Konzett-Rossler preparation). In kind it is in vivo. As to conditions: Cavia porcellus, iv, read-out: ID50 against histamine-induced constriction. As for the experimental part: as §1

A word on the inhibition: it is the relative decrease from the control value, in per cent. One may read the NOAEL as the highest tested level that showed no adverse finding. As usually defined, the IC50 is the point on the concentration scale where inhibition reaches its midpoint.

The structures appear in SMILES notation.

Take `CCCCCCCC(C)(O)CCN1C(=O)N(C)C(=O)C1CCCCCCC(=O)OC` (centres unmarked) [Compound 1, 1-(3'-hydroxy-3'-methyl-n-decyl)-3-methyl-5-(6"-methoxycarbonyl-n-hexyl)hydantoin]: in data set [1], the ED50 amounted to 4.5 µg/kg. Also, the “Aerosol route Activity (class symbol)” value in data set [2] is “A”.

Take `CCCCCCC(C)(O)CCN1C(=O)N(CC)C(=O)C1CCCCCCC(=O)OCC` (centres unmarked) [Compound 2, 1-(3'-hydroxy-3'-methyl-n-nonyl)-3-ethyl-5-(6"-ethoxycarbonyl-n-hexyl)hydantoin]: the ED50 in data set [1] came out at 6.8 µg/kg. Moreover, the “Aerosol route Activity (class symbol)” value in data set [2] is “A”.

On to `CCCCCCC(C)(O)CCN1C(=O)N(C)C(=O)C1CCCCCCC(=O)OCC` (centres unmarked) [Compound 3], for which, in data set [1], the ED50 turned out to be 0.4 µg/kg. In data set [2], the minimal effective dose was found to be 250 µg/kg, the “Aerosol route Activity (class symbol)” value is recorded as “A” and the “Oral route Activity (class symbol)” value was “A”.

In the case of `COC(=O)CCCCCCC1C(=O)N(C)C(=O)N1CCC1(O)CCCCC1` (centres unmarked) [Compound 4], the ED50 in data set [1] came out at 220 µg/kg.

Consider `CCCCCCC(C)(O)CCN1C(=O)N(C)C(=O)C1CCCCCCC(=O)OC` (centres unmarked) [Compound 6], for which the ED50 in data set [1] came out at 1.5 µg/kg.

Consider `CCCCC(C)C(C)(O)CCN1C(=O)N(C)C(=O)C1CCCCCCC(=O)OC` (centres unmarked) [Compound 7], for which, in data set [1], the ED50 worked out at 3.3 µg/kg.

For `CCCCCCC(C)(O)CCN1C(=O)N(CC)C(=O)C1CCCCCCC(=O)O` (centres unmarked) [Compound 16, 1-(3'-hydroxy-3'-methyl-n-nonyl)-3-ethyl-5-(6"-carboxy-n-hexyl)hydantoin], the ED50 in data set [1] was 5.8 µg/kg. The “Aerosol route Activity (class symbol)” value in data set [2] is recorded as “A”.

`CCCCCCCC(C)(O)CCN1C(=O)N(C)C(=O)C1CCCCCCC(=O)O` (centres unmarked) [Compound 17]: the ED50 in data set [1] is 8.5 µg/kg. For the same compound, the “Aerosol route Activity (class symbol)” value in data set [2] was “A”. Besides, the “Test Mean Score + S.E. of Mean (gastric damage score)” value (from here on “Test Mean Score + S.E. of Mean”) in data set [3] is 0.43 ± 0.30. Moreover, in data set [4], the “inhibited gastric acid secretion over the dose range” value lay in the range of 5000 to 10000 µg/kg. 100 µM produced 34% inhibition in data set [5]. Besides, the “prevention of fibrillation induced by chloroform” value in data set [6] is listed as “prevented fibrillation”. Further, the NOAEL in data set [7] (ip) is at least 100000 µg/kg; in data set [7] (po) it was at least 300000 µg/kg.

In data set [5], `CCC(C)(O)CCN1C(=O)N(C)C(=O)C1CCCCCCC(=O)O` (centres unmarked) [Compound 18] had an inhibition at 100 µM of 100%. The IC50 in data set [5] (in vitro, read-out: IC50 against collagen-induced aggregation) was determined as 7 µM.

Turning to `CN1C(=O)C(CCCCCCC(=O)O)N(CCC2(O)CCCCC2)C1=O` (centres unmarked) [Compound 19], the ED50 in data set [1] was over 220 µg/kg.

As for `CCCCCCC(C)(O)CCN1C(=O)N(C)C(=O)C1CCCCCCC(=O)O` (centres unmarked) [Compound 21, 1-(3'-hydroxy-3'-methyl-n-nonyl)-3-methyl-5-(6"-carboxy-n-hexyl)hydantoin], the ED50 in data set [1] is 0.6 µg/kg. For the same compound, the ED50 in data set [8] was 0.6 µg/kg. Moreover, in data set [2], the minimal effective dose is 250 µg/kg, the “Aerosol route Activity (class symbol)” value is given as “A” and the “Oral route Activity (class symbol)” value is “A”. Moreover, in data set [7] (po), the NOAEL was at least 900000 µg/kg.

For `CCCCC(C)C(C)(O)CCN1C(=O)N(C)C(=O)C1CCCCCCC(=O)O` (centres unmarked) [Compound 22], the ED50 in data set [1] was 3.2 µg/kg. For the same compound, the “Test Mean Score + S.E. of Mean” value in data set [3] is given as 0.00 ± 0.00.

As for `CN1C(=O)C(CCCCCCC(=O)O)N(CCC(C)(O)c2ccccc2)C1=O` (centres unmarked) [Compound 23], the ED50 in data set [1] is 60 µg/kg.

Turning to `CCCCCCC(O)CCN1C(=O)N(C)C(=O)C1CCCCCCC(=O)O` (centres unmarked) [Compound 24], in data set [1], the ED50 amounted to 6 µg/kg.

`CCCCCCC(C)(O)CCN1C(=O)N(C(C)(C)C)C(=O)C1CCCCCCC(=O)O` (centres unmarked) [Compound 25]: the “Test Mean Score + S.E. of Mean” value in data set [3] came out at 1.14 ± 0.74.

For the compound `CCCCCCC(C)(O)CCN1C(=S)N(C)C(=O)C1CCCCCCC(=O)OC` (centres unmarked) [Compound 30, 1-(3'-hydroxy-3'-methyl-n-nonyl)-3-methyl-5-(6"-methoxycarbonyl-n-hexyl)-2-thiohydantoin], in data set [3], the “Test Mean Score + S.E. of Mean” value is 0.14 ± 0.14.

With `CCCCCCC(C)(O)CCN1C(=S)N(C)C(=O)C1CCCCCCC(=O)OCC` (centres unmarked) [Compound 31], the ED50 in data set [1] is 4.2 µg/kg. Further, the “Test Mean Score + S.E. of Mean” value in data set [3] is given as 0.00 ± 0.00.

Values taken from patent US4147796A, “1-(3-Hydroxyalk-1-yl)-5-(carboxyalkyl)hydantoin derivatives” (Beecham Group Limited, priority 1976, dated 1979).
